The values that follow come from US6902881B2, “Compounds and methods for regulating cell differentiation” (priority 2000, dated 2005).

In data set [1] the test system is p 21 content in HT 29 Colon Cancer Cells. The data set can be described thus: p21 content in HT 29 colon cancer cells. Type of data set: cell-based, human. As to conditions: HT 29 low-density culture. Here is the method: Biliverdin IXα exerts powerful effects on human colon cancer HT 29 cells. Normally, the contents of p21 and p27, known inhibitors of the CDK system, increase as control HT 29 cells become confluent and reach stationary phase. […] In contrast, addition of 4×10^−7 M biliverdin to the incubation medium of the low-density cultures, results in persistence and/or progressive increase in p21 and p27 content starting as early as 16 hs. This effect on p21 induction is dependent on one or both of the propionic acid side chains of biliverdin.

The test system of data set [2] is UV-irradiated Xenopus laevis stage 1 embryos. As to the kind of experiment: Rescue of dorsal axis formation in UV-irradiated embryos, scored by dorsal anterior index (DAI). Type of data set: in vivo. Here is the method:
(§1) Several hundred spawned eggs were fertilized in vitro and incubated at 16 to 18° C. […] The vegetal surfaces of some of these embryos were irradiated with one or the other sources of UV light within 10 min of fertilization for 20-30 min. […] The embryos were not disturbed, touched or tipped from the moment of fertilization, during UV irradiation or for the duration of development. […] A score of 5 defines a normal dorsal axis, 4 a microcephalic, 3 a cyclopic, 2 an anoptic, 1 an acephalic and 0 an adorsal embryo.
The biological activities of biliverdin and its derivatives were tested by adding each of them to the incubation solution of embryos after the termination of the UV light exposure to either 254 or 366 nm UV light and at selected time periods between T ƒfm=0.4-2.5. Final concentrations of biliverdin ranged from 0.05 to 5 μM in less than 1% ethanol. […] An extinction coefficient of 51,000 was utilized to calculate their concentrations. All petri dishes were covered with aluminum foil to avoid light exposure. The extent of dorsal axis formation was analyzed by the morphological criteria described above.
Stage 1 embryos were exposed to UV-light source emitting at 366 nm (Mineralight UVSL-58, Ultraviolet Products, Inc., San Gabriel, Calif.) as described and then incubated in the presence of pure candidate DCD or commercially available biliverdin (Sigma-Aldrich, St. Louis, Mo.) at final concentrations from 0.05 to 1.2 μM in less than 1% ethanol. The concentrations were calculated using a molar extinction coefficient of 51,000. One group of embryos was not exposed to UV light but was incubated in the presence of 0.5 μM of candidate DCD.

For the next data set, the system named is HT29 colon cancer cells. As to the kind of experiment: Cellular proliferation and viability of HT29 colon cancer cells. Type of data set: cell-based, human. Here is the method:
Cell Culture Conditions. Human HT 29 colon cancer cells were purchased from the American Type Culture Collection. Cells were maintained in Dulbecco's Modified Eagle's Medium (DME) supplemented with 5% heat-inactivated fetal bovine serum, 2 mM glutamine, and antibiotics (DME/5%). All cell lines were incubated in a humidified 5% CO2/air environment. They were maintained at 37° C. in 5% CO2 covered in aluminum foil to prevent exposure to the light. A total of 1×10^6 cells were incubated per flask and allowed to attach overnight. Media was changed every third day. Cell counts were performed on a Coulter Counter following detachment of cells by standard trypsinization procedures. […] The period of exposure was followed by incubation in the absence of biliverdine. Cell numbers were monitored until proliferation resumed. The production of CEA and alkaline phosphatase was measured as described below.
The HT29 colon cancer cells were incubated with different concentrations of biliverdine and their response studied to identify the concentration ranges required to elicit a biological and/or a toxicological response (Table III).

For data set [3], the system named is control fertilized oocytes unexposed to UV light. As to the kind of experiment: Development of control embryos unexposed to UV light incubated with the compounds (dysmorphogen test). As to conditions: control fertilized oocytes unexposed to UV light incubated with the compound. Here is the method: as §1
The biological activities of biliverdin and its derivatives were tested by adding each of them to the incubation solution of embryos after the termination of the UV light exposure to either 254 or 366 nm UV light and at selected time periods between T ƒfm=0.4-2.5. Final concentrations of biliverdin ranged from 0.05 to 5 μM in less than 1% ethanol. […] The extent of dorsal axis formation was analyzed by the morphological criteria described above.
Stage 1 embryos were exposed to UV-light source emitting at 366 nm (Mineralight UVSL-58, Ultraviolet Products, Inc., San Gabriel, Calif.) as described and then incubated in the presence of pure candidate DCD or commercially available biliverdin (Sigma-Aldrich, St. Louis, Mo.) at final concentrations from 0.05 to 1.2 μM in less than 1% ethanol. The concentrations were calculated using a molar extinction coefficient of 51,000. […]

For data set [4], the system named is Normal Fibroblast (3T3-L1 fibroblasts). As to the kind of experiment: Cellular triacyl glycerol (TAG) content, normal fibroblast. Type of data set: cell-based. Here is the method:
Expression of differentiation markers. Carcinoembryogenic antigen in cell supernatants collected each three days was assayed by standard ELISA determinations using an IMX assay for quantitative measurement of the antigen. Cellular triacyl glycerol content was measured spectrophotometrically by enzymatic hydrolysis and analysis of the amount of glycerol released using a standard assay, Triglyceride (INT) 10 (Sigma Diagnostics). […] The fluorescence is detected at 450 nm with an excitation of 365 nm, using a Jobin Ivon-Spex Fluoro Max-2 fluorimeter. The alkaline phosphatase activity detected was expressed in units of μmol/mg protein/min. These compounds also affect the timing for the fat accumulation. After 9 days of incubation with insulin and bovine pituitary extract, but without biliverdin, the fat droplets in the cells are small and scattered diffusely throughout the cell. These globules continue to enlarge to fill most of the cytoplasmic space by day 14. In contrast, by day 7 the cells incubated in the presence of biliverdin already contain large, grouped and prominent droplets. While the triacyl glycerol content increases in both HT 29 and liposarcoma cells, the fat droplets in HT 29 cells are smaller than those that fill the cytoplasm of the liposarcoma cells. 3T3-L1 fibroblasts differentiate into adipocytes in the presence of insulin (Table VII). In the absence of biliverdin, this hormone increases the triacylglycerol content of 3T3-L1 fibroblasts by 3-fold relative to control. When biliverdin is added, a progressively greater content of triacyl glycerol is achieved at day 9. The increase is dependent on the biliverdin concentration. At the highest concentration used, 4×10^−7 M, there is a 5.8-fold increase of triacyl glycerol content over that of the undifferentiated fibroblasts (Table VII). This almost doubles the amount in the cells incubated with differentiation medium alone and is nearly as high as observed with troglitazone. At a lower biliverdin concentration, 10^−8 M, there is a 3.5-fold increase compared to control values. Remarkably, the amounts of biliverdin required to achieve the effects on proliferation, cell cycle and differentiation marker up-regulation, i.e. 10^−7-10^−06 M, are the same as those needed to re-establish the capacity of embryos depleted of the tetrapyrrole by treatment with UV-light to form a dorsal axis.

For a further data set, the system named is Liposarcoma cells. The data set can be described thus: Cellular triacyl glycerol (TAG) content, liposarcoma. Type of data set: cell-based, human. As to conditions: insulin 5 μg/ml, pituitary extract 20 μg/ml, biliverdin 4 × 10^−7 M where present. Here is the method: Expression of differentiation markers. Carcinoembryogenic antigen in cell supernatants collected each three days was assayed by standard ELISA determinations using an IMX assay for quantitative measurement of the antigen. Cellular triacyl glycerol content was measured spectrophotometrically by enzymatic hydrolysis and analysis of the amount of glycerol released using a standard assay, Triglyceride (INT) 10 (Sigma Diagnostics). Cellular alkaline phosphatase activity was determined by measuring the fluorescence change induced by the hydrolysis of 4-methylumbelliferylphosphate. The fluorescence is detected at 450 nm with an excitation of 365 nm, using a Jobin Ivon-Spex Fluoro Max-2 fluorimeter. The alkaline phosphatase activity detected was expressed in units of μmol/mg protein/min.
Liposarcoma cells also accumulate triacyl glycerol in response to biliverdin. The extent of the accumulation is determined by the composition of the incubation media. Triacyl glycerol is induced in liposarcoma cells by insulin alone. The amount increases when bovine pituitary extract is added with the insulin. The highest production is achieved, however, when biliverdin is combined with insulin plus bovine pituitary extract.

In the case of `C=CC1=C(C)/C(=C/C2=NC(=C\c3[nH]c(/C=C4\NC(=O)C(C)=C4C=C)c(C)c3CCC(=O)OC)/C(CCC(=O)OC)=C2C)NC1=O.Cl` [biliverdin dimethyl ester hydrochloride, reference compound], the “p21 content in words” value in data set [1] is reported as “nearly undetectable”. Moreover, in data set [2] (254 or 366 nm UV-irradiated embryos, μM amounts), the “recovery of dorsal axial structures” value is on record as “does not induce recovery”. For the same compound, the “recovery of dorsal axis formation” value in data set [2] (UV-irradiated embryos, 3.7 μM) was “no recovery”. Besides, in the data set on HT29 colon cancer cells, the “activity on human colon adenocarcinoma cells (p21/p27, G1, proliferation arrest, differentiation markers)” value was “inactive”. The “average DAI of control embryos” value in data set [3] is 5.
Regarding “Insulin: hormone; differentiates 3T3-L1 fibroblasts into adipocytes”, the “increase of triacylglycerol content relative to control” value in data set [4] (3T3-L1 fibroblasts, insulin in the absence of biliverdin) came to 3 fold. The “% Change of TAG” value stood at 304% in data set [4] (Normal Fibroblast, insulin 5 μg/ml, biliverdin 4 × 10^−7 M where present) and 139% with Liposarcoma cells. Moreover, the TAG turned out to be 28.3 mg/10^6 cells in data set [4] (Normal Fibroblast, insulin 5 μg/ml, biliverdin 4 × 10^−7 M where present, control 9.3) and 17.1 mg/10^6 cells in the data set on Liposarcoma cells (control 12.3).
